This passage reports melting point and pest or weed control results from patent US9210927B2, “Pesticidal compositions and processes related thereto” (Dow AgroSciences LLC, priority 2013, dated 2015).

By melting point is commonly meant the temperature, or range, at which the solid turns liquid.

In one data set the test system is BAW (Spodoptera exigua). Kind of data set: Bioassays on Beet Armyworm (BAW), 128-well diet tray assay. The settings on record: Spodoptera exigua, 168 h, read-out: BAW Rating. In kind it is in vivo. In a few lines: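 Second-instar larvae (one to five per well) placed on artificial diet treated with 50 μg/cm^2 compound in 90:10 acetone-water, eight wells per compound. Held covered at 25° C., 14:10 light-dark for five to seven days; percent mortality averaged across wells.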

The test system of another data set is CL (Trichoplusia ni). The experiment in a line: Bioassays on Cabbage Looper (CL), 128-well diet tray assay. In kind it is in vivo. The settings on record: 168 h, percent mortality, second instar larvae, 50 μg/cm^2 on artificial diet, five to seven days, 25° C., read-out: CL Rating. On the procedure: Bioassays on Beet Armyworm (“BAW”) and Corn Earworm (“CEW”) and Cabbage Looper (“CL”)
Certain molecules disclosed in this document were tested against BAW and CEW and CL using procedures described in the following examples. In the reporting of the results, the “BAW & CEW & CL Rating Table” was used (See Table Section).
Bioassays on CL (Trichoplusia ni)
Bioassays on CL were conducted using a 128-well diet tray assay. One to five second instar CL larvae were placed in each well (3 mL) of the diet tray that had been previously filled with 1 mL of artificial diet to which 50 μg/cm^2 of the test compound (dissolved in 50 μL of 90:10 acetone-water mixture) had been applied (to each of eight wells) and then allowed to dry. Trays were covered with a clear self-adhesive cover, and held at 25° C., 14:10 light-dark for five to seven days. Percent mortality was recorded for the larvae in each well; activity in the eight wells was then averaged. The results are indicated in the table entitled “Table 3A: Assay Results” (See Table Section).

Another data set relates to GPA (Myzus persicae). The experiment in a line: Bioassays on Green Peach Aphid (GPA), foliar spray on cabbage seedlings. In kind it is in vivo. To be noted: 72 h, corrected % control (Abbott), 200 ppm spray on cabbage seedlings, three days, read-out: GPA Rating. In a few lines: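 Cabbage seedlings with 2-3 true leaves, infested with 20-50 aphids (wingless adults and nymphs) one day earlier, sprayed to runoff at 200 ppm in 0.025% Tween 20 containing 20% acetone/MeOH (1:1); four pots per treatment. Live aphids counted after three days at approx. 25° C. Percent control by Abbott's correction against solvent check.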

Another data set concerns CEW (Helicoverpa zea). Kind of data set: Bioassays on Corn Earworm (CEW), 128-well diet tray assay. The settings on record: Helicoverpa zea, 168 h; percent mortality, second instar larvae, 50 μg/cm^2 on artificial diet, five to seven days, 25° C.; read-out: CEW Rating. It counts as in vivo. Summed up: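 Second-instar larvae (one to five per well) placed on artificial diet treated with 50 μg/cm^2 compound in 90:10 acetone-water and dried, eight wells per compound. Held 25 °C, 14:10 light-dark, five to seven days; percent mortality scored per well and averaged.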

The mark [1] stands for this setting: percent mortality, second instar larvae, 50 μg/cm^2 on artificial diet, five to seven days, 25° C.

Molecules are shown by their SMILES. Where two headings read alike, the source gives them in different places.

For `NC(=O)c1ccc(/C=C/C(c2cc(Cl)cc(Cl)c2)C(F)(F)F)cc1` (stereo not drawn) [AC2], the melting point lay within 110 to 112 °C.

On to `CCNC(=O)N(C)NC(=O)c1ccc(/C=C/C(c2cc(Cl)c(Cl)c(Cl)c2)C(F)(F)F)cc1Br` (stereo not drawn) [Compound F1, (E)-2-(2-Bromo-4-(4,4,4-trifluoro-3-(3,4,5-trichlorophenyl)but-1-en-1-yl)benzoyl)-N-ethyl-1-methylhydrazinecarboxamide], for which the pest or weed control at 50 µg/cm2 with BAW (Spodoptera exigua) (setting [1]) and in the data set on CL (Trichoplusia ni) was 50 to 100% throughout.

Take `O=C(NCC(F)(F)F)NNC(=O)c1ccc(/C=C/C(c2cc(Cl)c(Cl)c(Cl)c2)C(F)(F)F)cc1Br` (stereo not drawn) [Compound F7, (E)-2-(2-Bromo-4-(4,4,4-trifluoro-3-(3,4,5-trichlorophenyl)but-1-en-1-yl)benzoyl)-N-(2,2,2-trifluoroethyl)hydrazinecarboxamide]: the pest or weed control at 50 µg/cm2 in the data set with BAW (Spodoptera exigua) (setting [1]) and in the data set with CL (Trichoplusia ni) was 50 to 100% throughout.

Regarding `COc1c(Cl)cc(C(/C=C/c2ccc(-n3cncn3)c(C#N)c2)C(F)(F)F)cc1Cl` (stereo not drawn) [DC34], in the data set on GPA (Myzus persicae), the pest or weed control at 200 ppm was in the range of 0 to 80%. Besides, the pest or weed control at 50 µg/cm2 with CEW (Helicoverpa zea) and with BAW (Spodoptera exigua) was 50 to 100% throughout.

Turning to `N#Cc1cc(/C=C/C(c2cc(Cl)c(F)c(Cl)c2)C(F)(F)F)ccc1-n1cncn1` (stereo not drawn) [DC35], the pest or weed control at 200 ppm in the data set on GPA (Myzus persicae) lay within 0 to 80%. Also, the pest or weed control at 50 µg/cm2 in the data set with CEW (Helicoverpa zea) and with BAW (Spodoptera exigua) was 50 to 100% each time.

For `CN(NC(=O)c1ccc(/C=C/C(c2cc(Cl)c(Cl)c(Cl)c2)C(F)(F)F)cc1Br)C(=O)NCC(F)(F)F` (stereo not drawn) [FA1], the pest or weed control at 50 µg/cm2 in the data set on BAW (Spodoptera exigua) (setting [1]) and in the data set on CL (Trichoplusia ni) was 50 to 100% in each case.

As to `CN(NC(=O)c1ccc(/C=C/C(c2cc(Cl)c(Cl)c(Cl)c2)C(F)(F)F)cc1C(F)(F)F)C(=O)NCC(F)(F)F` (stereo not drawn) [FA2], the pest or weed control at 50 µg/cm2 in the data set on BAW (Spodoptera exigua) (setting [1]) and with CL (Trichoplusia ni) was 50 to 100% each time.

Regarding `CN(NC(=O)c1ccc(/C=C/C(c2cc(Br)cc(Br)c2)C(F)(F)F)cc1C(F)(F)F)C(=O)NCC(F)(F)F` (stereo not drawn) [FA4], the pest or weed control at 50 µg/cm2 in the data set on BAW (Spodoptera exigua) (setting [1]) and with CL (Trichoplusia ni) was 50 to 100% throughout.

On to `CN(NC(=O)c1ccc(/C=C/C(c2cc(Br)c(Cl)c(Br)c2)C(F)(F)F)cc1C(F)(F)F)C(=O)NCC(F)(F)F` (stereo not drawn) [FA5], for which the pest or weed control at 50 µg/cm2 in the data set on BAW (Spodoptera exigua) (setting [1]) and in the data set with CL (Trichoplusia ni) was 50 to 100% each time.

For the molecule `CN(NC(=O)c1ccc(/C=C/C(c2cc(Cl)c(Br)c(Cl)c2)C(F)(F)F)cc1C(F)(F)F)C(=O)NCC(F)(F)F` (stereo not drawn) [FA6], the pest or weed control at 50 µg/cm2 in the data set on BAW (Spodoptera exigua) (setting [1]) and in the data set on CL (Trichoplusia ni) was 50 to 100% each time.

Consider `CN(NC(=O)c1ccc(/C=C/C(c2cc(Cl)c(F)c(Cl)c2)C(F)(F)F)cc1C(F)(F)F)C(=O)NCC(F)(F)F` (stereo not drawn) [FA7], for which the pest or weed control at 50 µg/cm2 with BAW (Spodoptera exigua) (setting [1]) and in the data set on CL (Trichoplusia ni) was 50 to 100% throughout.

As to `CN(NC(=O)c1ccc(/C=C/C(c2cc(Cl)c(Cl)c(Cl)c2)C(F)(F)F)cc1C(F)(F)F)C(=O)NCC(F)F` (stereo not drawn) [FA8], the pest or weed control at 50 µg/cm2 in the data set with BAW (Spodoptera exigua) (setting [1]) and in the data set on CL (Trichoplusia ni) was 50 to 100% each time.

`CN(NC(=O)c1ccc(/C=C/C(c2cc(Cl)c(Cl)c(Cl)c2)C(F)(F)F)cc1C(F)(F)F)C(=O)NCCC(F)(F)F` (stereo not drawn) [FA9]: the pest or weed control at 50 µg/cm2 in the data set on BAW (Spodoptera exigua) (setting [1]) and in the data set with CL (Trichoplusia ni) was 50 to 100% throughout.
